Laboratory results from patent publication US20130296311A1, “INHIBITORS OF HCV NS5A” (PRESIDIO PHARMACEUTICALS, INC., priority 2010, published 2013).
Read-outs that look alike come from different tables or passages of the source.

Test system: HCV 1b_Huh-Luc/Neo-ET cell line persistently expressing a bicistronic genotype 1b replicon in Huh 7 cells
Assay: HCV replicon assay (luciferase readout, 72 h)
Format: cell-based, HCV genotype 1b
Conditions: Hepatitis C virus
Method in brief: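 EC50 values come from a four-parameter fit of luciferase signal as % of untreated control, repeated across several determinations. The signal is from the HCV 1b_Huh-Luc/Neo-ET replicon line, dosed in triplicate one day post-plating and incubated 72 h before Bright-Glo readout.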

[1] = Huh-7, read-out: Inhibition of HCV genotype 1b
[2] = Huh-7, 72 h, read-out: Inhibition of HCV genotype 1b

COC(=O)N[C@H](C(=O)N1CCC[C@H]1c1ncc(-c2ccc3cc(C#Cc4[nH]c([C@@H]5CCCN5C(=O)[C@@H](NC(=O)OC)C5CCCC5)nc4C(F)(F)F)ccc3c2)[nH]1)C1CCCC1 [Compound 1254]
EC50 [1]: < 1 nM

C[C@@H](NC(=O)OC(C)(C)C)C(=O)N1CCC[C@H]1c1ncc(C#Cc2ccc(-c3cnc([C@@H]4CCCN4C(=O)[C@@H](C)NC(=O)OC(C)(C)C)[nH]3)cc2)[nH]1 [Compound 104]
EC50 [2]: 1 to 9.9 nM

CN(C)[C@@H](C(=O)N1CCC[C@H]1c1ncc(-c2ccc(C#Cc3ccc(-c4cnc([C@@H]5CCCN5C(=O)[C@H](NS(C)(=O)=O)c5ccccc5)[nH]4)cc3)cc2)[nH]1)c1ccccc1 [Compound 228]
EC50 [2]: < 1 nM

COC(=O)N[C@H](C(=O)N1CCC[C@H]1c1ncc(-c2ccc(C#Cc3ccc(-c4cnc([C@@H]5CCCN5C(=O)[C@@H](NC(=O)OC)C5CCOCC5)[nH]4)c(F)c3)cc2)[nH]1)C1CCOCC1 [Compound 1012]
EC50 [2]: < 1 nM

CC1(O)CCN(C(=O)N[C@@H](C(=O)N2CCC[C@H]2c2nc(-c3ccc4cc(C#Cc5cnc([C@@H]6CCCN6C(=O)[C@H](NC(=O)N6CCC(C)(O)CC6)c6ccccc6)[nH]5)ccc4c3)c[nH]2)c2ccccc2)CC1 [Compound 805]
EC50 [2]: < 1 nM

COC[C@H](NC(=O)OC)C(=O)N1CCC[C@H]1c1ncc(-c2ccc(C#Cc3ccc(-c4cnc([C@@H]5CCCN5C(=O)[C@H](COC)NC(=O)OC)[nH]4)cc3)cc2)[nH]1 [Compound 976]
EC50 [2]: < 1 nM

CC(C)[C@H](NC(=O)N1CCC(O)CC1)C(=O)N1CCC[C@H]1c1ncc(-c2ccc(C#Cc3ccc(-c4cnc([C@@H]5CCCN5C(=O)[C@@H](NC(=O)N5CCC(O)CC5)C(C)C)[nH]4)cc3)cc2)[nH]1 [Compound 286]
EC50 [2]: > 1000 nM

COC(=O)N[C@H](C(=O)N1CCC[C@H]1c1nc2c([nH]1)-c1ccc(C#Cc3ccc4nc([C@@H]5CCCN5C(=O)[C@H](NC(=O)OC)c5ccccc5)[nH]c4c3)cc1CC2)C(C)C [Compound 1103]
EC50 [2]: < 1 nM

COC(=O)N[C@@H](C(=O)N1CCC[C@H]1c1ncc(-c2ccc(C#Cc3ccc(-c4cnc([C@@H]5CCCN5C(=O)[C@@H]5CCCN5C)[nH]4)cc3)cc2)[nH]1)c1ccccc1 [Compound 202]
EC50 [2]: < 1 nM

O=C(N[C@@H](C(=O)N1CCC[C@H]1c1ncc(-c2ccc(C#Cc3ccc(-c4cnc([C@@H]5CCCN5C(=O)[C@@H](c5ccccc5)N5CCCCC5)[nH]4)cc3)cc2)[nH]1)c1ccccc1)N1CCOCC1 [Compound 209]
EC50 [2]: < 1 nM

COC(=O)N[C@@H](C(=O)N1CCC[C@H]1c1ncc(C#Cc2ccc(-c3ccc(-c4cnc([C@@H]5CCCN5C(=O)[C@H](NC(=O)OC(C)(C)C)c5ccccc5)[nH]4)cc3)cc2)[nH]1)c1ccccc1 [Compound 753]
EC50 [2]: < 1 nM

CC(C)[C@H](NC(=O)C1CC1)C(=O)N1CCC[C@H]1c1ncc(-c2ccc(C#Cc3ccc(-c4cnc([C@@H]5CCCN5C(=O)[C@@H](NC(=O)C5CC5)C(C)C)[nH]4)cc3)cc2)[nH]1 [Compound 170]
EC50 [2]: 1 to 9.9 nM

C[C@H](NC(=O)[C@@H]1CCCN1C(=O)[C@H](NC(=O)OC(C)(C)C)c1ccccc1)c1ccc(C#Cc2cnc([C@@H]3CCCN3C(=O)[C@H](NC(=O)OC(C)(C)C)c3ccccc3)[nH]2)cc1 [Compound 130]
EC50 [2]: 10 to 999 nM

COC(=O)N[C@@H](C(=O)N1CCC[C@H]1c1ncc(C#Cc2ccc(-c3cnc([C@@H]4CCCN4C(=O)[C@H](NC(=O)OC)c4ccccc4)[nH]3)cc2)[nH]1)c1ccccc1 [Compound 110]
EC50 [2]: < 1 nM

COC(=O)N[C@H](C(=O)N1CCC[C@H]1c1ncc(-c2ccc(C#Cc3ccc4c(c3)CCCc3nc([C@@H]5CCCN5C(=O)[C@@H](NC(=O)OC)C(C)C)[nH]c3-4)cc2)[nH]1)C(C)C [Compound 1096]
EC50 [2]: < 1 nM

COC(=O)N[C@H](C(=O)N1CCC[C@H]1c1ncc(-c2ccc(C#Cc3ccc(-c4cnc([C@@H]5CCCN5C(=O)[C@H](NC(=O)OC)c5ccsc5)[nH]4)cc3)cc2)[nH]1)[C@@H](C)OC [Compound 1212]
EC50 [1]: < 1 nM

COC(=O)N[C@@H](C)C(=O)N1CCC[C@H]1c1ncc(-c2ccc(C#Cc3ccc(-c4cnc([C@@H]5CCCN5C(=O)[C@H](NC(=O)OC)c5ccccc5)[nH]4)cc3)cc2)[nH]1 [Compound 1004]
EC50 [2]: < 1 nM
